“Also recorded” adds a separate entry of the source. Like-named read-outs stand apart in the source and are kept apart here.
Tests used:
advanced solid tumors = assay: Tumor assessments according to RECIST version 1.0; type: in vivo, human; settings: of 38 evaluable; AZD7762 plus gemcitabine
pChk1ser345 and pH2AX = type: in vivo, human
[1] = test system: patients with advanced solid tumors; settings: for Serious AE possibly related to AZD7762: one patient
Japanese patients = settings: in combination with gemcitabine, bradycardia, hypertension, DLT troponin T increase; cited from earlier work
[2] = Single-dose pharmacokinetics of AZD7762 in plasma and urine
[3] = AZD7762 6 mg/gemcitabine 750 mg/m^2, 3x/cycle, n=6
[4] = AZD7762 6 mg/gemcitabine 1,000 mg/m^2, 2x/cycle, n=2
[5] = AZD7762 6 mg/gemcitabine 1,000 mg/m^2, 3x/cycle, n=1
[6] = AZD7762 9 mg/gemcitabine 1,000 mg/m^2, n=3
[7] = AZD7762 14 mg/gemcitabine 1,000 mg/m^2, n=6
[8] = AZD7762 21 mg/gemcitabine 1,000 mg/m^2, n=3
[9] = AZD7762 30 mg/gemcitabine 1,000 mg/m^2, n=7
[10] = AZD7762 32 mg/gemcitabine 1,000 mg/m^2, n=6
[11] = AZD7762 40 mg/gemcitabine 1,000 mg/m^2, n=8
[12] = all doses, overall, 11/42 patients
[13] = cycle 0 (AZD7762 alone), 6/42 patients
[14] = cycle 1 onwards, AZD7762 6 mg plus gemcitabine 1,000 mg/m^2, 3x/cycle, n=1

NC(=O)Nc1cc(-c2cccc(F)c2)sc1C(=O)N[C@H]1CCCNC1 [AZD7762]
Best response stable disease for ≥6–<12 weeks, patients (advanced solid tumors): five
Disease progression as best response, patients (advanced solid tumors): 20 patients
Stable disease for ≥12 weeks, patients (advanced solid tumors): four
Change in staining of pChk1ser345 and pH2AX (pChk1ser345 and pH2AX; 32 mg cohort, AZD7762 after gemcitabine): small increases in staining
H-scores for both biomarkers (out of 12) (pChk1ser345 and pH2AX; hair follicles from skin biopsies, pChk1ser345 and pH2AX): 0–3
Change in staining of pChk1ser345 and pH2AX (pChk1ser345 and pH2AX; other dose cohorts): no increased staining
Blood ALP increased, number of patients (%) [1, 3]: 0 patients (%)
Constipation, number of patients (%) [1, 3]: 2 (33) patients (%)
Decreased appetite, number of patients (%) [1, 3]: 2 (33) patients (%)
Dehydration, number of patients (%) [1, 3]: 2 (33) patients (%)
Diarrhea, number of patients (%) [1, 3]: 0 patients (%)
Neutropenia/leukopenia, number of patients (%) [1, 3]: 0 patients (%)
Thrombocytopenia, number of patients (%) [1, 3]: 2 (33) patients (%)
Vomiting, number of patients (%) [1, 3]: 2 (33) patients (%)
Decreased appetite, number of patients (%) [1, 4]: 0 patients (%)
Diarrhea, number of patients (%) [1, 4]: 0 patients (%)
Headache, number of patients (%) [1, 4]: 0 patients (%)
Nausea, number of patients (%) [1, 4]: 0 patients (%)
Neutropenia/leukopenia, number of patients (%) [1, 4]: 0 patients (%)
Thrombocytopenia, number of patients (%) [1, 4]: 0 patients (%)
ALT/AST increased, number of patients (%) [1, 5]: 0 patients (%)
Blood ALP increased, number of patients (%) [1, 5]: 0 patients (%)
Constipation, number of patients (%) [1, 5]: 0 patients (%)
Decreased appetite, number of patients (%) [1, 5]: 0 patients (%)
Dehydration, number of patients (%) [1, 5]: 0 patients (%)
Headache, number of patients (%) [1, 5]: 0 patients (%)
Thrombocytopenia, number of patients (%) [1, 5]: 0 patients (%)
ALT/AST increased, number of patients (%) [1, 6]: 0 patients (%)
Anemia/Hb decreased, number of patients (%) [1, 6]: 1 (33) patients (%)
Blood ALP increased, number of patients (%) [1, 6]: 0 patients (%)
Constipation, number of patients (%) [1, 6]: 1 (33) patients (%)
Decreased appetite, number of patients (%) [1, 6]: 0 patients (%)
Dehydration, number of patients (%) [1, 6]: 1 (33) patients (%)
Diarrhea, number of patients (%) [1, 6]: 1 (33) patients (%)
Fatigue, number of patients (%) [1, 6]: 1 (33) patients (%)
Nausea, number of patients (%) [1, 6]: 1 (33) patients (%)
Neutropenia/leukopenia, number of patients (%) [1, 6]: 0 patients (%)
Thrombocytopenia, number of patients (%) [1, 6]: 1 (33) patients (%)
Vomiting, number of patients (%) [1, 6]: 0 patients (%)
ALT/AST increased, number of patients (%) [1, 7]: 0 patients (%)
Anemia/Hb decreased, number of patients (%) [1, 7]: 0 patients (%)
Blood ALP increased, number of patients (%) [1, 7]: 0 patients (%)
Constipation, number of patients (%) [1, 7]: 2 (33) patients (%)
Dehydration, number of patients (%) [1, 7]: 0 patients (%)
Headache, number of patients (%) [1, 7]: 0 patients (%)
Neutropenia/leukopenia, number of patients (%) [1, 7]: 2 (33) patients (%)
ALT/AST increased, number of patients (%) [1, 8]: 0 patients (%)
Anemia/Hb decreased, number of patients (%) [1, 8]: 0 patients (%)
Blood ALP increased, number of patients (%) [1, 8]: 0 patients (%)
Constipation, number of patients (%) [1, 8]: 0 patients (%)
Dehydration, number of patients (%) [1, 8]: 1 (33) patients (%)
Diarrhea, number of patients (%) [1, 8]: 0 patients (%)
Headache, number of patients (%) [1, 8]: 0 patients (%)
Nausea, number of patients (%) [1, 8]: 1 (33) patients (%)
Neutropenia/leukopenia, number of patients (%) [1, 8]: 0 patients (%)
Pyrexia, number of patients (%) [1, 8]: 0 patients (%)
Thrombocytopenia, number of patients (%) [1, 8]: 0 patients (%)
Vomiting, number of patients (%) [1, 8]: 1 (33) patients (%)
Constipation, number of patients (%) [1, 9]: 1 (14) patients (%)
Decreased appetite, number of patients (%) [1, 9]: 0 patients (%)
Dehydration, number of patients (%) [1, 9]: 0 patients (%)
Fatigue, number of patients (%) [1, 9]: 0 patients (%)
Headache, number of patients (%) [1, 9]: 0 patients (%)
Nausea, number of patients (%) [1, 9]: 1 (14) patients (%)
Pyrexia, number of patients (%) [1, 9]: 0 patients (%)
Thrombocytopenia, number of patients (%) [1, 9]: 0 patients (%)
ALT/AST increased, number of patients (%) [1, 10]: 0 patients (%)
Blood ALP increased, number of patients (%) [1, 10]: 0 patients (%)
Constipation, number of patients (%) [1, 10]: 0 patients (%)
Decreased appetite, number of patients (%) [1, 10]: 2 (33) patients (%)
Diarrhea, number of patients (%) [1, 10]: 2 (33) patients (%)
Anemia/Hb decreased, number of patients (%) [1, 11]: 2 (25) patients (%)
Decreased appetite, number of patients (%) [1, 11]: 0 patients (%)
Dehydration, number of patients (%) [1, 11]: 0 patients (%)
Fatigue, number of patients (%) [1, 11]: 2 (25) patients (%)
Headache, number of patients (%) [1, 11]: 0 patients (%)
Nausea, number of patients (%) [1, 11]: 2 (25) patients (%)
Pyrexia, number of patients (%) [1, 11]: 2 (25) patients (%)
Thrombocytopenia, number of patients (%) [1, 11]: 2 (25) patients (%)
ALT/AST increase, patients with AE overall [1, 12]: 26%
Nausea, patients with AE overall [1, 12]: 26%
Pyrexia, patients with AE overall [1, 12]: 26%
Anemia/Hb decrease, patients with AE overall ([1]; all doses, overall, 12/42 patients): 29%
Neutropenia/leukopenia, patients with AE overall ([1]; all doses, overall, 15/42 patients): 36%
Fatigue, patients with AE overall ([1]; all doses, overall, 17/42 patients): 41%
ALT/AST increased, number of patients (%) ([1]; all doses, total n=42): 11 (26) patients (%)
Dehydration, number of patients (%) ([1]; all doses, total n=42): 6 (14) patients (%)
Nausea, number of patients (%) ([1]; all doses, total n=42): 11 (26) patients (%)
Pyrexia, number of patients (%) ([1]; all doses, total n=42): 11 (26) patients (%)
Nausea, patients with AE ([1]; cycle 0 (AZD7762 alone), 5/42 patients): 12%
Fatigue, patients with AE [1, 13]: 14%
Vomiting, patients with AE [1, 13]: 14%
AEs of CTCAE grade ≥3, patients ([1]; cycle 0 (AZD7762 alone), 8/42 patients): 19%
Adverse events grade ≥3, patients ([1]; cycle 0, AZD7762 monotherapy 6 mg (6/750 cohort, 3x/cycle, n=6)): 2 (33) n (%)
Adverse events grade ≥3, patients ([1]; cycle 0, AZD7762 monotherapy 6 mg (6/1,000 cohort, 2x/cycle, n=2)): 0 n (%)
Adverse events grade ≥3, patients ([1]; cycle 0, AZD7762 monotherapy 6 mg (6/1,000 cohort, 3x/cycle, n=1)): 0 n (%)
Adverse events grade ≥3, patients ([1]; cycle 0, AZD7762 monotherapy 9 mg, n=3): 0 n (%)
Adverse events grade ≥3, patients ([1]; cycle 0, AZD7762 monotherapy 14 mg, n=6): 0 n (%)
Adverse events grade ≥3, patients ([1]; cycle 0, AZD7762 monotherapy 21 mg, n=3): 0 n (%)
Adverse events grade ≥3, patients ([1]; cycle 0, AZD7762 monotherapy 30 mg, n=7): 0 n (%)
Adverse events grade ≥3, patients ([1]; cycle 0, AZD7762 monotherapy 32 mg, n=6): 3 (50) n (%)
Grade ≥3 adverse events, term ([1]; cycle 0, AZD7762 monotherapy 32 mg, n=6, n=1 per term unless stated): Hyponatremia Peripheral neuropathy Troponin I increased
Adverse events grade ≥3, patients ([1]; cycle 0, AZD7762 monotherapy 40 mg, n=8): 3 (38) n (%)
Grade ≥3 adverse events, term ([1]; cycle 0, AZD7762 monotherapy 40 mg, n=8, n=1 per term unless stated): Device-related infection Myocardial ischemia Hyperglycemia
AEs of CTCAE grade ≥3, patients ([1]; cycle 1 (AZD7762 in combination with gemcitabine), 22/42 patients): 52%
Non-cardiac dose-limiting toxicity ([1]; cycle 1, one patient at AZD7762 32 mg with gemcitabine 1,000 mg/m^2): grade 3 nausea/vomiting for 2 days
Non-cardiac dose-limiting toxicity ([1]; cycle 1, one patient at AZD7762 40 mg with gemcitabine 1,000 mg/m^2): grade 4 neutropenia complicated by ≥38.5 °C fever for 2 days
Adverse events grade ≥3, patients ([1]; cycle 1 onwards, AZD7762 6 mg plus gemcitabine 750 mg/m^2, 3x/cycle, n=6): 5 (83) n (%)
Adverse events grade ≥3, patients ([1]; cycle 1 onwards, AZD7762 6 mg plus gemcitabine 1,000 mg/m^2, 2x/cycle, n=2): 1 (50) n (%)
Adverse events grade ≥3, patients [1, 14]: 1 (100) n (%)
Grade ≥3 adverse events, term [1, 14]: Neutropenia (n = 2)
Adverse events grade ≥3, patients ([1]; cycle 1 onwards, AZD7762 9 mg plus gemcitabine 1,000 mg/m^2, n=3): 1 (33) n (%)
Grade ≥3 adverse events, term ([1]; cycle 1 onwards, AZD7762 9 mg plus gemcitabine 1,000 mg/m^2, n=3, n=1 per term): Thrombocytopenia
Adverse events grade ≥3, patients ([1]; cycle 1 onwards, AZD7762 14 mg plus gemcitabine 1,000 mg/m^2, n=6): 2 (33) n (%)
Adverse events grade ≥3, patients ([1]; cycle 1 onwards, AZD7762 21 mg plus gemcitabine 1,000 mg/m^2, n=3): 1 (33) n (%)
Grade ≥3 adverse events, term ([1]; cycle 1 onwards, AZD7762 21 mg plus gemcitabine 1,000 mg/m^2, n=3, n=1 per term): Atrial thrombosis Febrile neutropenia
Adverse events grade ≥3, patients ([1]; cycle 1 onwards, AZD7762 30 mg plus gemcitabine 1,000 mg/m^2, n=7): 4 (57) n (%)
Adverse events grade ≥3, patients ([1]; cycle 1 onwards, AZD7762 32 mg plus gemcitabine 1,000 mg/m^2, n=6): 3 (50) n (%)
Grade ≥3 adverse events, term ([1]; cycle 1 onwards, AZD7762 32 mg plus gemcitabine 1,000 mg/m^2, n=6, n=1 per term): Neutropenia Flank pain Nausea Vomiting
Adverse events grade ≥3, patients ([1]; cycle 1 onwards, AZD7762 40 mg plus gemcitabine 1,000 mg/m^2, n=8): 4 (50) n (%)
Adverse events grade ≥3, patients ([1]; cycle 1 onwards, AZD7762 plus gemcitabine, all doses, total n=42): 22 (52) n (%)
Serious AE possibly related to AZD7762 ([1]; AZD7762 30 mg group, also judged causally related to gemcitabine): grade 3 chest pain
Serious AE possibly related to AZD7762 ([1]; AZD7762 40 mg group, also recorded as a DLT): grade 3 myocardial ischemia
Dose escalation limit due to cardiac AEs (Japanese patients): did not support dose escalation beyond 21 mg
Peak plasma concentration ([2]; 30 mg dose): 291 ng/mL
Unchanged drug excreted in the urine ([2]; first 48 h post-dosing, across all dose levels): 11–20%
AZD7762 exposure (Cmax, C24 h, and AUC) versus dose ([2]; over the dose range studied): increased linearly; also recorded: increased in a dose-proportional manner

— publication PMC4486055 (Cancer chemotherapy and pharmacology, 2014)
